Consider one molecule from patent US8148431B2, “Osteogenesis promoter containing β-cryptoxanthin as the active ingredient” (Kemin Health, L.C., priority 2002, dated 2012).

Marks after values point to notes of the source that are not given here.

In assay [1] the test system is diaphysis tissue of the femur (cortical bone). Put plainly: Bone DNA level in cultured femoral diaphysis tissue pieces. The assay is classed as cell-based, Wistar male rats. To be noted: for Bone DNA level: diaphysis tissue, mean ± SE. How it is done: (§1) The femurs were extracted from rats (Wistar male rats; 4 to 5 weeks old) (purchased from Japan SLC Co., Ltd. and fed with solid Oriental yeast (MF)) under anesthesia with ether under a germfree condition. The femurs were each washed with 0.25 M sucrose solution, and then divided into the diaphysis (cortical bone) and metaphysis (cancellous bone). The bone tissue pieces were cultured in a culture medium (Dulbecco's modified culture medium containing 5% of glucose; serum-free medium) containing. β-cryptoxanthin, etc. at […] in an incubator filled with 5% CO2-95% air for 48 hours. β-cryptoxanthin used was “β-cryptoxanthin” of Extrasynthase Co., cycloheximide used was “Cycloheximide” of Sigma Co. Ltd., β-carotene was “β-carotene” of Sigma ? , xanthine was “Xanthine” of Sigma Co, Ltd., parathormone was “Parathormone” of Sigma Co. Ltd. and prostaglandin E2 was “Prostaglandin E2” of Sigma Co. Ltd. In the control, only the culture medium was used without β-cryptoxanthin or the like.
(§2) DNA level was determined as an index of the number of cells in the bone tissue. After the culture in an incubator, the tissue pieces were washed with 0.25 M sucrose solution and then the wet weight of them was determined. They were pulverized in 4 ml of 0.1 N NaOH. After the osmosis at 4° C. for 24 hours, the liquid mixture was centrifuged. The supernatant was taken as the sample and determined by a method of Ceriotti et al. (J. Biol. Chem., 241; 34-77, 1951). Namely, 1 ml of concentrated hydrochloric acid and 1 ml of 0.04% indole solution were added to 2 ml of the sample and then the resultant mixture was heated to 100° C. in boiling water. After quenching followed by the extraction with 4 ml of chloroform, the chloroform layer was taken to determine bone DNA level with a spectrophotometer (490 nm).
The bone component-increasing effect of β-cryptoxanthin was examined. The diaphysis and metaphysis tissue of the femur was cultured in the above-described culture medium containing β-cryptoxanthin ([…]) for 48 hours. Calcium level in the bone tissue, alkaline phosphatase activity (enzyme for accelerating the bone calcification) and the amount of deoxyribonucleic acid (DNA; index of number of cells in the bone tissue) were determined by the same methods as in Example 1. In each test group, the determination vas conducted 6 to 8 times and the results were represented by the average value and the standard error. The significant difference was determined by Student's t-test. The result was compared with that of the control. When P value was not higher than 0.01 (**) or not higher than 0.05 (*), the results were statistically significant.

For assay [2], the system named is diaphysis tissue of the femur. Put plainly: Bone resorption (PTH or prostaglandin E2): bone calcium level in cultured diaphysis tissue. The format is cell-based, Wistar male rats. How it is done:
as §1
Bone calcium level in the bone tissue was determined. After the culture in the incubator, the tissue pieces were washed with 0.25 M sucrose solution and dried and then the bone was weighed. Then concentrated nitric acid was added to the tissue pieces. After the incineration at 120° C. for 12 hours, the bone calcium level was determined with an atomic absorption photometer (“Perkin-Elmer 303” of Perkin-Elmer Co.).
The bone mineral dissolution-inhibiting effect of β-cryptoxanthin was examined. […] PTH also has a pathophysiologic role on the expression of osteoporosis caused by the aging. It is known that prostaglandin E2 also causes physiologic bone mineral dissolution. The diaphysis or metaphysis tissue of the femur was cultured in the presence of 10^−7 M PTH or 10^−5 M prostaglandin E2 for 48 hours and then calcium level in the bone tissue was determined. In another experiment, the culture was conducted in the same manner as that described above in the coexistence of them and β-cryptoxanthin (10^−8 M to 10^−6 M) and then calcium level in the bone tissue was determined. In each test group, the determination was conducted 6 to 8 times and the results were represented by the average value and the standard error. The significant difference was determined by Student's t-test. The result was compared with that of the control. When P value was not higher than 0.01 (*) as compared with the control or it is not higher than 0.1 (#) as compared with that of prostaglandin E2, the results were statistically significant.

Assay [3] relates to rats, femoral diaphysis tissue. As to the kind of experiment: Oral administration to rats: bone DNA level in diaphysis tissue. The assay is classed as in vivo, Wistar male rats. The following applies: for Bone DNA level: diaphysis tissue. The method, then:
as §2
A solution of β-cryptoxanthin in corn oil having one of three kinds of concentration (10, 25 and 50 μg/ml corn oil) was orally administered to rats (Wistar male rats; 4 to 5 weeks old) in an amount/100 g body weight with a probe once a day for 7 days. The rats were sacrificed 24 hours after the final administration. The femurs were excised. The muscles, etc. were taken out and each femur was divided into diaphysis and metaphysis to determine the bone components.
Tests were conducted to examine whether the bone components are increased by the oral administration of β-cryptoxanthin to rats or not. β-cryptoxanthin was administered for 7 days (10, 25 or 50 μg/100 g body weight/day) and then calcium level in the bone tissue, determination of alkaline phosphatase activity (enzyme for the acceleration of the calcification of bones) and the amount of deoxyribonucleic acid (DNA: index of the number of the cells in the bone tissue) were determined by the same methods as those in Example 1. In each test group, the determination was conducted 6 times and the results were represented by the average value and the standard error. The significant difference was determined by Student's t-test. The result was compared with that of the control. When P value was not higher than 0.01 (*) as compared with the control, the results were statistically significant.

Take `CC1=C(/C=C/C(C)=C/C=C/C(C)=C/C=C/C=C(C)/C=C/C=C(C)/C=C/C2=C(C)C[C@@H](O)CC2(C)C)C(C)(C)CCC1` [β-cryptoxanthin]: the “Effect on DNA level in the diaphysis tissue (in words)” value in assay [1] (10^−7 to 10^−5 M, 48 h culture, vs control) is reported as “significantly increased”. Besides, the “Bone DNA level” value in assay [1] (Table 2 (protein synthesis inhibitor experiment), 10^−6 M (each agent), n=6) is 1.800 ± 0.025* mg/g bone wet weight; in assay [1] (10^−5 M, 48 h culture), 1.802 ± 0.063** mg/g bone wet weight; in assay [1] (10^−6 M, 48 h culture) it was 1.746 ± 0.016* mg/g bone wet weight; in assay [1] (10^−7 M, 48 h culture), 1.788 ± 0.049* mg/g bone wet weight; in assay [1] (10^−8 M, 48 h culture), 1.741 ± 0.099 mg/g bone wet weight; in assay [3] (oral 10 μg/100 g body weight/day for 7 days) it was 1.95 ± 0.18 mg/g bone wet weight. Further, the figures for the “Bone DNA level” value in assay [3] (oral 25 μg/100 g body weight/day for 7 days) and in assay [3] (oral 50 μg/100 g body weight/day for 7 days) were 3.01 ± 0.23* mg/g bone wet weight and 2.53 ± 0.20* mg/g bone wet weight, respectively. In addition, the “Bone DNA level in diaphysis tissue increased by β-cryptoxanthin: change in the presence of cycloheximide (in words)” value in assay [1] (β-cryptoxanthin 10^−6 M with cycloheximide) is “significantly lowered”. Besides, in assay [2] (diaphysis tissue, β-cryptoxanthin 10^−5 to 10^−6 M (so in the source) with prostaglandin E2 10^−5 M), the “Control of prostaglandin E2-caused reduction of calcium level in the bone tissue (in words)” value is on record as “completely controlled”. In addition, in assay [2] (β-cryptoxanthin 10^−8 to 10^−6 M in the presence of PTH), the “Control of PTH-caused reduction of calcium level in the diaphysis tissue (in words)” value is “significantly controlled”. Further, the “Effect on DNA in the bone tissue, diaphysis, after oral administration (in words)” value in assay [3] (25 or 50 μg/100 g body weight/day, 7 days) is “significantly increased”.
